Values of other authors, collected in paper PMC5849076 (Biochemistry, 2018).

Tests used:
DaCld = DaCld (Dechloromonas aromatica, UniProt Q47CX0)
Chain of DaCld (Q47CX0 35-282): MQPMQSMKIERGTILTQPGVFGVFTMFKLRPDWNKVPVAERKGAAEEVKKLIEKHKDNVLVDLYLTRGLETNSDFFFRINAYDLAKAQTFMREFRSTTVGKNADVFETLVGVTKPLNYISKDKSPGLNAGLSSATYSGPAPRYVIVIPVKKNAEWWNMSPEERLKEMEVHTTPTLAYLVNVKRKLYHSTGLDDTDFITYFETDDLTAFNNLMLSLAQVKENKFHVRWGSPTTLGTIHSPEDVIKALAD

## chlorite [ClO2^−]
KpCld
  number of turnovers: 6700 ± 300 equivalents ClO2^−/heme
DaCld
  turnovers prior to irreversible inactivation: > 20,000 equivalents of ClO2^− per heme
